The target of test [1] is T1, CD44 IgG1Fc (Homo sapiens, UniProt P16070).
T1 construct: purchased R & D systems
The experiment in a line: Surface plasmon resonance binding of rhPRG4 to CD44 and competition with HMW HA. Here is the method:
Binding of rhPRG4 to CD44-IgG1Fc was investigated using surface plasmon resonance (Biacore T100, GE Healthcare Lifesciences, NJ, USA). Series S chips were functionalized using the human antibody capture kit (GE Life Sciences) and either CD44-IgG1Fc or IgG1FC was allowed to bind to the surface of the functionalized chips in flow cell 1 (Fc1) and flow cell 2 (Fc2), respectively. rhPRG4 was injected at 30 μL/min for 8 min at concentrations of 300, 250, 200, 150, 100 and 50 μg/mL followed by a 10 min dissociation using 0.1M HEPES, 1.5M NaCl, 30 mM EDTA, and 0.5% P20 (GE Life Sciences). The surface of the chip was regenerated at the end of each cycle with 1 min pulse of 3M MgCl2. Each analyte concentration was injected in duplicate. The resulting curves were double referenced (i.e. Fc2-Fc1, followed by subtraction of the 0 μg/mL curve). The binding kinetics and binding affinity were determined by BiaEvaluation software, using 1:1 binding/conformational change model or by steady-state equilibrium, respectively. To study the competition between rhPRG4 and HMW HA in binding to CD44, rhPRG4 was injected at concentrations ranging between 0 and 300 μg/mL as described above. Following the end of dissociation phase, HMW HA was injected at 50 μg/mL (30 μL per min) for 1 min. […]
(In general: Surface plasmon resonance follows binding to a sensor surface in real time, without labels.)

The target in test [2] is T1, CD44 IgG1Fc. The experiment in a line: Direct ELISA: binding of coated macromolecules to CD44-IgG1Fc versus IgG1Fc. Conditions: wells coated at 400 μg/mL; CD44-IgG1Fc or IgG1Fc 1 μg/mL; p<0.001 where significant. Here is the method:
High-binding microtiter plates (Corning, Sigma Aldrich, USA) were coated with rhPRG4 (Mr≅240 KDa), high molecular weight HA (HMW HA; Mr≈1,500 KDa) (R & D System, USA), medium molecular weight HA (MMW HA; Mr≈300 KDa) (R & D System) and vitronectin (Mr≅75 KDa) (Sigma Aldrich) at 400 μg/mL in PBS buffer (100 μL per well) overnight at 4° C. rhPRG4 is a full-length product produced by CHO-M cells (Lubris, Framingham, Mass., USA). Following washing with PBS+0.1% Tween 20, wells were blocked with 2% bovine serum albumin (BSA; 300 μL per well) for at least 2 hours at room temperature. CD44-IgG1Fc (R & D systems) or IgG1Fc (R & D systems), each at 1 μg/mL (100 μl per well), were added to the plate and incubated for 60 min at room temperature. Following washing with PBS+0.1% tween 20, anti-IgG1Fc-HRP (Sigma Aldrich) was added at 1:10,000 dilution (100 μL per well) and incubated for 60 min at room temp. Following washing with PBS+0.1% tween 20, the assay was developed using 1-step Turbo TMB ELISA reagent (ThermoScientific, USA) and absorbance was measured at 450 nm. The data represents an average of 4 independent assays, each with triplicate wells per group.
On the technique in general: In an ELISA, binding on a coated surface is turned into a signal by an enzyme label.

Test [3] is described as follows: Serum cytokine levels after DMM surgery and intraarticular lubricin. Type of test: in vivo, rat. The following applies: single intraarticular dose 200 μg/kg seven days after DMM surgery; samples 3 weeks after dose; versus saline. Here is the method: In order to determine if lubricin could modulate pro-inflammatory cytokine levels in vivo, a rat model was used. Nine rats were subject to surgery to destabilize the medial meniscus (DMM surgery). Seven days after surgery, each rat received a single intraarticular dose of lubricin of 200 μg/kg. Control rats received an injection of an equal volume of saline. Cytokine levels in serum samples taken from the […] were compared with […] who received surgery but no dose of lubricin post-surgery. Samples were drawn 3 weeks after the dose of lubricin was administered and analyzed using the Luminex Multiplex platform. The results are shown in FIG. 13 where the measured levels of EPO, IL-13, IL-10, IL-18, IL-1α, IL-2, MCSF, IL-1β, IL-4, IFN-γ, MIP-3α, GMCSF, IL-7, TNF-α, VEGF, MCP-1, IL-5, G-CSF, RANTES, IL-6, GRO, IL-17α, and IL-12p70 are shown. The levels of IL-18, MCSF, MCP-1, RANTES, and GRO were all reduced in rats receiving lubricin as compared to rats that were injected with saline alone.

Another test has as its system human whole blood. The test is described as follows: Lubricin on tissue factor mediated inflammatory cytokine generation in whole blood. Type of test: cell-based. Here is the method:
The effect of lubricin on recombinant tissue factor (TF) mediated inflammatory cytokine generation was studied using Biochip Array technology. In these studies recombiplastin brand (IL Laboratories) tissue factor was used to trigger the generation of inflammatory cytokines in human whole blood. The effect of lubricin at 0.57 mg/mL was studied by supplementing this agent prior to the addition of tissue factor to the whole blood. Tissue factor alone served as a positive control. The blood samples were centrifuged and plasma retrieved. This plasma was then profiled for the inflammatory cytokine profile on the Randox Biochip arrays. TF was supplemented to whole blood in a 1:10 dilution.

Test [4] concerns NFκB nuclear translocation in RA-FLS. The experiment in a line: NFκB nuclear translocation after TNF-α stimulation of RA-FLS. In kind it is cell-based. Conditions: TNF-α 5 ng/mL; rhPRG4 200 μg/mL or MG 132 3 μM; 24 hours; p<0.001. On the procedure:
RA-FLS (400,000 cells/well) were cultured and stimulated with TNF-α (5 ng/mL) and treated with rhPRG4 (200 μg/mL) or a commercially available NFκB translocation inhibitor MG 132 (3 μM; Tocris Bioscience) for 24 hours in serum free media. Cells were harvested and nuclear extraction was performed using a commercially available kit (Thermo scientific). Total protein was measured using a micro bicinchonic acid (BCA) kit (Thermo scientific) and 3 μg of nuclear extract of each experimental group were used. The p50 subunit of NFκB was detected in the nuclear extract using a commercially available NFκB DNA binding assay kit (Abcam). Data is presented as the number of fold change in NFκB nuclear levels compared to untreated control. To evaluate whether inhibition of NFκB translocation by rhPRG4 is CD44 dependent, the above experiment was repeated in the presence or absence of IM7 CD44 antibody (1:1,000 dilution). Data represents the average of 3 independent experiments with at least triplicate wells per treatment.

Take “rhPRG4: full-length recombinant human PRG4 (lubricin) glycoprotein produced by CHO-M cells (Lubris), Mr≅240 KDa”: in the test with CD44 IgG1Fc [1] (immobilized CD44-IgG1Fc, based on a rhPRG4 molecular weight of 240 KDa, read-out: apparent Kd), the Kd is ~38 nM. Moreover, in the test with CD44 IgG1Fc [1] (rhPRG4 0-300 μg/mL, then HMW HA 50 μg/mL, inverse relationship of binding signals), the “effect on binding of HMW HA to recombinant CD44” value was “interfered with binding of HMW HA”. Also, the “450 nm absorbance in the CD44-IgG1Fc group versus the IgG1Fc group” value with CD44 IgG1Fc [2] is “significantly higher”. Besides, the “serum levels of IL-18, MCSF, MCP-1, RANTES and GRO” value in test [3] is on record as “reduced”. Further, the “IL-6, IL-8, VEGF, TNF-α, IL-1α, IL-1β, MCP-1 and EGF” value with human whole blood (lubricin 0.57 mg/mL before tissue factor (1:10), versus TF alone) is “decrease”. For the same substance, in the test on human whole blood (lubricin 0.57 mg/mL, tissue factor supplemented samples), the “TNF-α and VEGF levels” value was “pronounced decrease”. The “NFκB nuclear translocation compared to TNF-α-treated RA-FLS” value in test [4] is listed as “significantly reduced”.

Values taken from US11717557B2, “Use of PRG4 as an anti-inflammatory agent” (Lubris LLC, priority 2015, dated 2023).
